Measured values taken from US12161722B2, “Bifunctional heterocyclic compound having BTK degradation function via ubiquitin proteasome pathway, and use thereof” (KOREA RESEARCH INSTITUTE OF CHEMICAL TECHNOLOGY, priority 2021, dated 2024).

These compounds were tested against T1, WT BTK protein (Homo sapiens, UniProt Q06187) (assay: BTK protein degradation assay (Western blotting), WT BTK). Conditions: concentration range accounting for 50% degradation of WT BTK protein, TMD-8 or RAMOS cells, 24 hours.
T1 construct: measured for intracellular BTK protein levels by Western blotting; endogenous in cells; host or cells: TMD-8 or RAMOS cells
T1 sequence (Q06187 whole entry): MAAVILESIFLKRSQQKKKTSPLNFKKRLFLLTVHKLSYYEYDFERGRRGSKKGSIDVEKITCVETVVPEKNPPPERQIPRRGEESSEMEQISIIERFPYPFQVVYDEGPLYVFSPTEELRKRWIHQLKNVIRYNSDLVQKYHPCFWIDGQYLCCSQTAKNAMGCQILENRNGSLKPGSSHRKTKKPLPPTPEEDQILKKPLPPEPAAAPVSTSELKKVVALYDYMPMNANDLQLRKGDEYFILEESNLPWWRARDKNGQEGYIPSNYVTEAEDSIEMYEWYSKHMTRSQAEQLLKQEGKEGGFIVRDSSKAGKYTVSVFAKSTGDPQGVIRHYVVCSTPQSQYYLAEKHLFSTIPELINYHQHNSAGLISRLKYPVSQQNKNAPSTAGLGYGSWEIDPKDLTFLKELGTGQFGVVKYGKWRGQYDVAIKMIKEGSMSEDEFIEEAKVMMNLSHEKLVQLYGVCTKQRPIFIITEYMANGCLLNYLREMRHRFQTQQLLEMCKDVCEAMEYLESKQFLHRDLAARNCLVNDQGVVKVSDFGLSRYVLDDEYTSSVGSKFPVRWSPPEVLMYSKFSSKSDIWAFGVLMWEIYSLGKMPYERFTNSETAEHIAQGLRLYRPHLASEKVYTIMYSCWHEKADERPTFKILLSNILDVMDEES
Assay type: cell-based
Protocol: TMD-8, RAMOS, or 293T BTK MUT (C481S) cells were treated with the synthesized compounds and measured for intracellular BTK protein levels by Western blotting. The protocol of the experiment using TMD-8 cells is as follows.
TMD-8 cells were resuspended in an RPMI1640 medium (Hyclone, SH30027.01, 10% FBS (Hyclone, SV30207.02), 1% penicillin-streptomycin (Welgene, LS 202-02) and the cell suspension was seeded at a density of 1×10^6 cells/mL in an amount of 1 mL per well into 12-well plates.
The 12-well plates were treated as follows. A 10 mM stock was 1/10 diluted in series with DMSO ([…]) to form final concentrations of 10, 1, 0.1, 0.01, 0.001, and 0.0001 mM. The compounds with such concentrations were applied to cells, followed by harvesting the cells 24 hours later. For a negative control, a 1/10 dilution of DMSO in the medium (3 mL DMSO+27 mL medium) was used.
The 1-mL cell culture in each well was passed many times through a pipette and then transferred into a 1.5-mL microtube before centrifugation (500 g, 5 min, 4° C.). The supernatant was discarded and the cell pellet was washed with PBS. After centrifugation (500 g, 5 min, 4° C.) again, the supernatant was discarded and the cell pellet was taken.
A lysis buffer was prepared as follows. RIPA buffer (Biosesang, RC2038-050-00)+0.5 mM PMSF (SIGMA, P7626)+1×Protease/Phosphatase Inhibitor (Cell signaling, 5872S) was added in an amount […] per well and left for 30 minutes on ice (vortexing at 0 and 30 minutes) before sonication (5 cycles of pulse for 10 seconds and rest for 30 seconds, 70% amplification). The supernatant obtained by centrifugation (15000 g, 15 min, 4° C.) was transferred into a new microtube. Cells in each well of 96-well plates were 1/2 diluted with the RIPA buffer and incubated at 37° C. for 30 minutes with […] of a 50:1 mixture of BCA reagents A and B in BCA Protein Assay Kit (iNtRON, 21071). After being cooled for 10 minutes, the 96-well plates were measured for absorbance at 562 nm on the BioTek, SYNERGY H1 microplate reader. Samples were prepared by protein quantification based on the absorbance measurements and then boiled at 70° C. for 10 minutes. The sample buffer used in the case was prepared by mixing a NuPAGE or a Bolt 4× sample buffer (Invitrogen) and its 10× sample reducing agent depending on the gel to be used, and protein dilution was made in a RIPI buffer.
The samples were loaded in the same amount into a NuPAGE or Bolt Bis-tris 4-12% gradient gel and allowed to run therein (200 V, 35 minutes). The separated proteins were transferred onto a […] NC membrane, using Trans-blot Turbo (BIO-RAD) (1.3 A constant, 25V limit, 15 minutes). The membrane was blocked at room temperature for 1 hour with skim milk or Intercept Blocking Buffer (LI-COR, 927-60001):0.1% TBST=1:1. The membrane was incubated with Anti BTK Rabbit (1:1,000 in 5% skim milk/0.2% TBST, size: 77 kDa, Cell signaling Technology) at 4° C. overnight O/N or at room temperature for 2 hours and with Anti GAPDH Rabbit (1:10,000 in 5% BSA/0.2% TBST, size: 36 kDa, GENETEX) and Anti β-actin mouse (1:10,000 in 5% BSA/0.2% TBST, RT, size: 43 kDa, GENETEX) at room temperature for 1 or 3 hours. Then, the membrane was washed three times with 0.5% TBST for 5 minutes each time before incubation with the second antibody Anti-Rabbit IgG (1:5,000 in 5% Skim milk/TBST, CST), IRDye® 800CW Goat anti-Rabbit IgG Secondary Antibody (1:10,000 in 5% skim/TBST, RT 45 min), or IRDye® 680RD Goat anti-Mouse IgG Secondary Antibody (1:10,000 in 5% skim/TBST, RT 45 min) for 45 minutes at room temperature in a rocker. The membrane was washed five times with 0.5% TBST for 5 minutes in each time, followed by detection with LI-COR, Odyssey. In this regard, the detection proceeded, as it was, for house-keeping genes while using SuperSignal West Pico PLUS Chemiluminescent Substrate or SuperSignal West femto Maximum Sensitivity Substrate for BTK detection. […]
`Cc1cccc(C)c1Nc1nn(C)c2nc(Nc3ccc(N4CCN(C[C@H]5CCCN(c6ccc7c(c6)C(=O)N(C6CCC(=O)NC6=O)C7=O)C5)CC4)nc3)ncc12` (stereo partly drawn) [Compound 160, 5-((R)-3-((4-(5-((3-((2,6-Dimethylphenyl)amino)-1-methyl-1H-pyrazolo[3,4-d]pyrimidin-6-yl)amino)pyridin-2-yl)piperazin-1-yl)methyl)piperidin-1-yl)-2-(2,6-dioxopiperidin-3-yl)isoindoline-1,3-dione] gave a DC50 of 0.1 to 10 nM.
For `Cc1cccc(C)c1Nc1nn(C)c2nc(Nc3ccc(C4CCN(C(=O)C5CN(c6ccc7c(c6)C(=O)N(C6CCC(=O)NC6=O)C7=O)C5)CC4)c(F)c3)ncc12` (centres unmarked) [Compound 229, 5-(3-(4-(4-((3-((2,6-dimethylphenyl)amino)-1-methyl-1H-pyrazolo[3,4-d]pyrimidin-6-yl)amino)-2-fluorophenyl)piperidine-1-carbonyl)azetidin-1-yl)-2-(2,6-dioxopiperidin-3-yl)isoindoline-1,3-dione], the DC50 was 10 to 1000 nM.
Compound `Cc1cccc(C)c1Nc1nn(C)c2nc(Nc3ccc(C4CCN(C(=O)/C(C#N)=C/C5CCN(C(=O)CNc6ccc7c(c6)C(=O)N(C6CCC(=O)NC6=O)C7=O)CC5)CC4)cc3)ncc12` (centres unmarked) [Compound 261, (E)-2-(4-(4-((3-((2,6-Dimethylphenyl)amino)-1-methyl-1H-pyrazolo[3,4-d]pyrimidin-6-yl)amino)phenyl)piperidine-1-carbonyl)-3-(1-((2-(2,6-dioxopiperidin-3-yl)-1,3-dioxoisoindolin-5-yl)glycyl)piperidin-4-yl)acrylonitrile] has a DC50 of 0.1 to 10 nM.
`Cc1cccc(C)c1Nc1nn(C)c2nc(Nc3ccc4c(c3)CN(CC3CCN(c5cc6c(cc5F)C(=O)N(C5CCC(=O)NC5=O)C6=O)CC3)CC4)ncc12` (centres unmarked) [Compound 208, 5-(4-((7-((3-((2,6-Dimethylphenyl)amino)-1-methyl-1H-pyrazolo[3,4-d]pyrimidin-6-yl)amino)-3,4-dihydroisoquinolin-2 (1H)-yl)methyl)piperidin-1-yl)-2-(2,6-dioxopiperidin-3-yl)-6-fluoroisoindoline-1,3-dione] was tested, and the DC50 was 0.1 to 10 nM.
For `Cc1cccc(C)c1Nc1nn(C)c2nc(Nc3ccc4c(c3)CN(C3CCN(C[C@H]5CCN(c6ccc7c(c6)C(=O)N(C6CCC(=O)NC6=O)C7=O)C5)CC3)CC4)ncc12` (stereo partly drawn) [Compound 142, 5-((R)-3-((4-(7-((3-((2,6-dimethylphenyl)amino)-1-methyl-1H-pyrazolo[3,4-d]pyrimidin-6-yl)amino)-3,4-dihydroisoquinolin-2 (1H)-yl)piperidin-1-yl)methyl)pyrrolidin-1-yl)-2-(2,6-dioxopiperidin-3-yl)isoindoline-1,3-dione], the DC50 was 0.1 to 10 nM.
In the case of `Cc1cccc(C)c1Nc1nn(C)c2nc(Nc3ccc4c(c3)CN(CC3CCN(C(=O)c5ccc6c(c5)CN(C5CCC(=O)NC5=O)C6=O)CC3)CC4)ncc12` (centres unmarked) [Compound 258, 3-(5-(4-((7-((3-((2,6-Dimethylphenyl)amino)-1-methyl-1H-pyrazolo[3,4-d]pyrimidin-6-yl)amino)-3,4-dihydroisoquinolin-2 (1H)-yl)methyl)piperidine-1-carbonyl)-1-oxoisoindolin-2-yl)piperidin-2,6-one], the DC50 is reported as 0.1 to 10 nM.
In the case of `Cc1cccc(C)c1Nc1nn(C)c2nc(Nc3ccc(C4CN(CC5CN(c6ccc7c(c6)C(=O)N(C6CCC(=O)NC6=O)C7=O)C5)C4)cc3)ncc12` (centres unmarked) [Compound 182, 5-(3-((3-(4-((3-((2,6-Dimethylphenyl)amino)-1-methyl-1H-pyrazolo[3,4-d]pyrimidin-6-yl)amino)phenyl)azetidin-1-yl)methyl)azetidin-1-yl)-2-(2,6-dioxopiperidin-3-yl)isoindoline-1,3-dione], the DC50 is reported as 0.1 to 10 nM.
`Cc1cccc(C)c1Nc1nn(C)c2nc(Nc3ccc(N4CCN(CC5CN(c6ccc7c(c6)C(=O)N(C6CCC(=O)NC6=O)C7=O)C5)CC4)nc3)ncc12` (centres unmarked) [Compound 159, 5-(3-((4-(5-((3-((2,6-dimethylphenyl)amino)-1-methyl-1H-pyrazolo[3,4-d]pyrimidin-6-yl)amino)pyridin-2-yl)piperazin-1-yl)methyl)azetidin-1-yl)-2-(2,6-dioxopiperidin-3-yl)isoindoline-1,3-dione] showed a DC50 of 0.1 to 10 nM.
`Cc1cccc(C)c1Nc1nn(C)c2nc(Nc3ccc4c(c3)CN(C(=O)CC3CCN(c5ccc6c(c5)C(=O)N(C5CCC(=O)NC5=O)C6=O)CC3)CC4)ncc12` (centres unmarked) [Compound 125, 5-(4-(2-(7-((3-((2,6-Dimethylphenyl)amino)-1-methyl-1H-pyrazolo[3,4-d]pyrimidin-6-yl)amino)-3,4-dihydroisoquinolin-2 (1H)-yl)-2-oxoethyl)piperidin-1-yl)-2-(2,6-dioxopiperidin-3-yl)isoindoline-1,3-dione] gave a DC50 of 0.1 to 10 nM.
`Cc1cccc(C)c1Nc1nn(C)c2nc(Nc3ccc4c(c3)CN(CC(=O)Nc3ccc5c(c3)CN(C3CCC(=O)NC3=O)C5=O)CC4)ncc12` (centres unmarked) [Compound 108, 2-(7-((3-((2,6-Dimethylphenyl)amino)-1-methyl-1H-pyrazolo[3,4-d]pyrimidin-6-yl)amino)-3,4-dihydroisoquinolin-2 (1H)-yl)-N-(2-(2,6-dioxopiperidin-3-yl)-1-oxoisoindolin-5-yl)acetamide] showed a DC50 of 0.1 to 10 nM.
`Cc1cccc(Br)c1Nc1nn(C)c2nc(Nc3ccc4c(c3)CN(CC3CCN(c5ccc6c(c5)C(=O)N(C5CCC(=O)NC5=O)C6=O)CC3)CC4)ncc12` (centres unmarked) [Compound 195, 5-(4-((7-((3-((2-Bromo-6-methylphenyl)amino)-1-methyl-1H-pyrazolo[3,4-d]pyrimidin-6-yl)amino)-3,4-dihydroisoquinolin-2 (1H)-yl)methyl)piperidin-1-yl)-2-(2,6-dioxopiperidin-3-yl)isoindoline-1,3-dione] gave a DC50 of 0.1 to 10 nM.
With `Cc1cccc(C)c1Nc1nn(C)c2nc(Nc3ccc4c(c3)CN(CC3CCN(c5ccc6c(=O)n(C7CCC(=O)NC7=O)nnc6c5)CC3)C4)ncc12` (centres unmarked) [Compound 74, 3-(7-(4-((5-((3-((2,6-Dimethylphenyl)amino)-1-methyl-1H-pyrazolo[3,4-d]pyrimidin-6-yl)amino)isoindolin-2-yl)methyl)piperidin-1-yl)-4-oxobenzo[d][1,2,3]triazin-3 (4H)-yl)piperidin-2,6-one] the DC50 was 10 to 1000 nM.
Compound `Cc1cccc(C)c1Nc1nn(C)c2nc(Nc3ccc(F)c(C4=CCN(CC5CCN(c6ccc7c(c6)C(=O)N(C6CCC(=O)NC6=O)C7=O)CC5)CC4)c3)ncc12` (centres unmarked) [Compound 250, 5-(4-((4-(5-((3-((2,6-Dimethylphenyl)amino)-1-methyl-1H-pyrazolo[3,4-d]pyrimidin-6-yl)amino)-2-fluorophenyl)-3,6-dihydropyridin-1 (2H)-yl)methyl)piperidin-1-yl)-2-(2,6-dioxopiperidin-3-yl)isoindoline-1,3-dione] has a DC50 of 0.1 to 10 nM.
`Cc1cccc(C)c1Nc1nn(C)c2nc(Nc3ccc4c(c3)CN(C(=O)C3CCN(C(=O)CNc5ccc6c(=O)n(C7CCC(=O)NC7=O)nnc6c5)CC3)CC4)ncc12` (centres unmarked) [Compound 68, 3-(7-((2-(4-(7-((3-((2,6-Dimethylphenyl)amino)-1-methyl-1H-pyrazolo[3,4-d]pyrimidin-6-yl)amino)-1,2,3,4-tetrahydroisoquinoline-2-carbonyl)piperidin-1-yl)-2-oxoethyl)amino)-4-oxobenzo[d][1,2,3]triazin-3 (4H)-yl)piperidin-2,6-one] was tested, and the DC50 was 10 to 1000 nM.
